Measurements: patent US20210393655A1, “Vesicular Formulations for Use in the Treatment of Pain or Reduced Mobility of a Joint” (Sequessome Technology Holdings Limited, priority 2012, published 2021)

Columns and labels:
Type in all cases: in vivo, human
[1] = system: patients with osteoarthritis of the knee; assay: Clinical trials in osteoarthritis of the knee: WOMAC stiffness subscale; settings: study CL-033-III-03; end of 3 month treatment
Description: (§1) Six clinical trials were conducted with Formulation X on patients with osteoarthritis of the knee. One efficacy measure was the change from baseline to the end of the study in patients' perception of joint stiffness and physical function. In studies CL-033-III-03 and CL-033-III-06, joint stiffness was assessed using two single items describing the severity of stiffness, both of which were measured using an 11-point numerical rating (NRS) on the stiffness subscale of the Western Ontario and McMaster Universities (WOMAC) Osteoarthritis Index (version 3.1) instrument. A measure of physical function was performed in all six studies using the WOMAC Osteoarthritis Index (version 3.1), which consisted of 17 single items describing the difficulty in performing daily activities. Each item was rated on a VAS or an 11-point numerical scale.

[2] = system: patients with osteoarthritis of the knee; assay: Clinical trials in osteoarthritis of the knee: WOMAC physical function subscale
Description: as §1, with “One” for “Six clinical trials were conducted with Formulation X on patients with osteoarthritis of the knee. One”

[3] = system: patients with osteoarthritis of the knee; assay: Clinical trial CL-033-III-03: WOMAC pain subscale
Description: as §1
Pain, joint mobility and physical function outcomes were compared in study CL-033-III-03.

[4] = oral celecoxib 100 mg b.i.d. (n = 233), 3 months, CL-033-III-03
[5] = study CL-033-III-03, end of 3 month treatment

Cc1ccc(-c2cc(C(F)(F)F)nn2-c2ccc(S(N)(=O)=O)cc2)cc1 [celecoxib]
Reduction in stiffness (WOMAC stiffness) [1]: 37.9%
Effect size versus oral placebo (Mann-Whitney estimator, MW), WOMAC function subscale score [2, 4]: MW = 0.5949
Improvement in physical function (WOMAC function) [2, 5]: 38.2%
Effect size versus oral placebo (Mann-Whitney estimator, MW), WOMAC pain subscale score [3, 4]: MW = 0.5873
Reduction in joint pain (WOMAC pain) [3, 5]: 40.4%
